Common to all, as to type: binding
The target of assay [1] is T1, human vasopressin receptor V2 (Homo sapiens, UniProt P30518).
T1 construct: expressed in transfected cells
Briefly: Scintillation proximity assay, displacement of [3H]AVP from human V2 receptor. From the text:
(§1) OT analogues were screened in scintillation proximity assays that displace [^3H]OT or [^3H]AVP from the corresponding receptors. […]
(§2) All RCYs reported are decay corrected to the time of 18F delivery. The protocols for performing
(§3) receptor radioligand binding and potency studies on transfected cells to determine affinity

In assay [2] the target is T2, human V1a receptors (Homo sapiens, UniProt P37288).
T2 construct: expressed in transfected cells
Briefly: Scintillation proximity assay, displacement of [3H]AVP from human V1a receptor.
Description: as §1, §2, §3
For orientation: In a scintillation proximity assay essentially only radioactivity close to the scintillant gives light.

Assay [3] deals with T3, human OTR (Homo sapiens, UniProt P30559).
T3 construct: expressed in transfected cells
T3 sequence (P30559 1-389): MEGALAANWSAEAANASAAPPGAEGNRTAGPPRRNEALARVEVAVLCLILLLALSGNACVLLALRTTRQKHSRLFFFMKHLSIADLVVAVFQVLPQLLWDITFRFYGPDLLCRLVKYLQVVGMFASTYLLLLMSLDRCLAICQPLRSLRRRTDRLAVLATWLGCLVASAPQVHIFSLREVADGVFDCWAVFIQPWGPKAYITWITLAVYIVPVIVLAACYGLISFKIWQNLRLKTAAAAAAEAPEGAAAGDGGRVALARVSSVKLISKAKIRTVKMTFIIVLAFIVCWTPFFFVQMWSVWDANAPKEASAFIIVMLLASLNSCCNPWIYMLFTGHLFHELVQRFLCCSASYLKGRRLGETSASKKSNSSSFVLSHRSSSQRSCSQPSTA
Briefly: Scintillation proximity assay, displacement of [3H]OT from human OTR. The conditions noted are these: for Ki: human OTR.
Description: as §1, §2, §3

Structures are written as SMILES. Where a SMILES comes first, the peptide text is derived from it. Bridges are numbered along the chain shown (N, C = ends). [ ]: non-standard residue; d: D form. Mpa = O=C(O)CCS

T2 sequence (P37288 whole entry): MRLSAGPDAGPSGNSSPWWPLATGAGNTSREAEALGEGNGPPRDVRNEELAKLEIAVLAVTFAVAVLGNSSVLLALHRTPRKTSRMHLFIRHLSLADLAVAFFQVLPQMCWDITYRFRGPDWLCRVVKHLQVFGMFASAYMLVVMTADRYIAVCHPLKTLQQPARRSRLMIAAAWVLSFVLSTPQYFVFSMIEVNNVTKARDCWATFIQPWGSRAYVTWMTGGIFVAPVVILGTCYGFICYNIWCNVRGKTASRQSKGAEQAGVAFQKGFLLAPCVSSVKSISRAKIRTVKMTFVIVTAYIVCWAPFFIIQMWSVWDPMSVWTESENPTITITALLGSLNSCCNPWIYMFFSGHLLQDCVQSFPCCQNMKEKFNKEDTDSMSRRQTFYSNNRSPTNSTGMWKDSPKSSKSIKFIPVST
T1 sequence (P30518 whole entry): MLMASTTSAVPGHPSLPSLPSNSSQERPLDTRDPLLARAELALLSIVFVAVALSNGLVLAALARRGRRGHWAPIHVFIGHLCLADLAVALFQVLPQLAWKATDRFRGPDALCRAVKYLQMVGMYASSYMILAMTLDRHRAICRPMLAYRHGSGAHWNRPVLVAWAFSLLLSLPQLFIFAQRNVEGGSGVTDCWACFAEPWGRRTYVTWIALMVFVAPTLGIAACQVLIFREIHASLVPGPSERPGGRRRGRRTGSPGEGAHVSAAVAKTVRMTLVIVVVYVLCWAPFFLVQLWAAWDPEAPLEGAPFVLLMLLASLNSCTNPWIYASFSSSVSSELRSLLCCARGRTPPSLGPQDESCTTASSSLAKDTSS

As a reminder, the Ki is the dissociation constant of the complex between target and ligand, obtained from inhibition or displacement. Low readings indicate a stronger hold on the target, high ones a looser hold on the target. Take `CC[C@H](C)[C@@H]1NC(=O)[C@H](Cc2ccc(O)cc2)NC(=O)CCSSC[C@@H](C(=O)N2CCC[C@H]2C(=O)N[C@@H](CCCCN)C(=O)NCC(N)=O)NC(=O)[C@H](CC(N)=O)NC(=O)[C@H](CCC(N)=O)NC1=O` [dLVTc, reference compound] ([Mpa]YIQNCPKG-NH2; disulfide 1-6): the Ki in assay [1] was 4840 ± 1670 nM; in assay [2] it was 24 ± 5 nM; in assay [3] it was 3.4 ± 1 nM. Also, the “selectivity towards OTR” value in assay [3] (OTR over V1a, from Ki values of Table 1) was approximately 7 fold.

With `CC[C@H](C)[C@H](NC(=O)[C@H](Cc1ccc(O)cc1)NC(=O)CCS)C(=O)N[C@@H](CCC(N)=O)C(=O)N[C@@H](CC(N)=O)C(=O)N[C@@H](CS)C(=O)N1CCC[C@H]1C(=O)N[C@@H](CCCCN)C(=O)NCC(N)=O` [dLVToc] ([Mpa]YIQNCPKG-NH2), the figures for the inhibitory constant (Ki) in assay [1], in assay [2] and in assay [3] were 5820 ± 1700 nM, 31 ± 9 nM and 6.3 ± 3.6 nM, respectively.

For the compound `CC[C@H](C)[C@@H]1NC(=O)[C@H](Cc2ccc(O)cc2)NC(=O)CCSSC[C@@H](C(=O)N2CCC[C@H]2C(=O)N[C@@H](CC(C)C)C(=O)NCC(N)=O)NC(=O)[C@H](CC(N)=O)NC(=O)[C@H](CCC(N)=O)NC1=O` [dOTc], the values for the Ki in assay [2] and in assay [3] were 388 ± 157 nM and 1.6 ± 1.3 nM, respectively.

On to `CC[C@H](C)[C@H](NC(=O)[C@H](Cc1ccc(O)cc1)NC(=O)CCS)C(=O)N[C@@H](CCC(N)=O)C(=O)N[C@@H](CC(N)=O)C(=O)N[C@@H](CS)C(=O)N1CCC[C@H]1C(=O)N[C@@H](CC(C)C)C(=O)NCC(N)=O` [dOToc], for which the inhibitory constant (Ki) is 362 ± 124 nM in assay [2] and 1.2 ± 0.9 nM in assay [3].
